Source: ChEMBL document CHEMBL5046226, “Identification of (6S)-cyclopropyl-6,7-dihydropyrazolo[1,5-a]pyrazine-5(4H)-carboxamines as new HBV capsid assembly modulators” (Eur J Med Chem, 2022)

Legend:
Hepatitis B virus = assay: Antiviral activity against Hepatitis B virus infected in human HepG2.2.15 cells; type: functional, organism-based
[1] = Cytotoxicity against human HepG2.2.15 cells assessed as reduction in cell viability by CellTiter-Glo reagent based assay; type: toxicity, HepG2 2.2.15
[2] = Cmax in ICR mouse at 50 mg/kg, po; type: ADME, organism-based; design: route oral, dose 50 mg/kg; details: in vivo
[3] = Half life in ICR mouse at 50 mg/kg, po; type: ADME, organism-based; details: in vivo
[4] = AUC (0 to infinity) in ICR mouse at 50 mg/kg, po; type: ADME, organism-based; design: route oral, time infinity, dose 50 mg/kg; details: in vivo
[5] = Tmax in ICR mouse at 50 mg/kg, po; type: ADME, organism-based; details: in vivo

SMILES	EC50 (Hepatitis B virus)	Cmax [2]	half-life [3]	AUC(0-inf) [4]	Tmax [5]	CC50 [1]
C[C@H]1Cn2ncc(N3CC(c4ccccc4)CC3=O)c2CN1S(=O)(=O)Nc1cc(F)c(F)c(F)c1 (some centres undefined)	> 2000 nM					> 2000 nM
CC1CCn2ncc(N3CC(c4ccccc4)CC3=O)c2CN1C(=O)Nc1cc(F)c(F)c(F)c1 (centres undefined)	> 2000 nM					> 2000 nM
O=C1c2ccccc2CN1c1cnn2c1CN(C(=O)Nc1cc(F)c(F)c(F)c1)C(C1CC1)C2 (centres undefined)	83 nM					38500 nM
CC1(C)CN(C(=O)Nc2cc(F)c(F)c(F)c2)Cc2c(N3CC(C#N)CC3=O)cnn21 (centres undefined)	38 nM					> 200000 nM
O=C1CC(c2ccccc2)CN1c1cnn2c1CN(C(=O)Nc1cc(F)c(F)c(F)c1)C(Cc1ccccc1)C2 (centres undefined)	> 2000 nM					> 2000 nM
C[C@H]1Cn2ncc(N3CC(c4ccccc4)CC3=O)c2CN1C(=O)NCc1cc(F)c(F)c(F)c1 (some centres undefined)	> 2000 nM					> 2000 nM
C[C@H]1Cn2ncc(N3CC(c4ccccc4)CC3=O)c2CN1C(=S)Nc1cc(F)c(F)c(F)c1 (some centres undefined)	> 2000 nM					> 2000 nM
N#CC1CC(=O)N(c2cnn3c2CN(C(=O)Nc2cc(F)c(F)c(F)c2)C2(CC2)C3)C1 (centres undefined)	124 nM					> 200000 nM
O=C(Nc1cc(F)c(F)c(F)c1)N1CCCn2ncc(N3CC(c4ccccc4)CC3=O)c2C1 (centres undefined)	> 2000 nM					> 2000 nM
O=C(Nc1cc(F)c(F)c(F)c1)N1Cc2c(-c3ccc(F)cc3F)cnn2CC1C1CC1 (centres undefined)	23 nM					32000 nM
CC1CN(C(=O)Nc2cc(F)c(F)c(F)c2)Cc2c(N3CC(C#N)CC3=O)cnn21 (centres undefined)	62 nM					115000 nM
O=C1CC(C(F)(F)F)CN1c1cnn2c1CN(C(=O)Nc1cc(F)c(F)c(F)c1)C(C1CC1)C2 (centres undefined)	34 nM					115000 nM
C[C@H]1Cn2ncc(N3CC(c4ccccc4)CC3=O)c2CN1CC(=O)Nc1cc(F)c(F)c(F)c1 (some centres undefined)	> 2000 nM					> 2000 nM
O=C1CC(c2ccc(F)cc2)CN1c1cnn2c1CN(C(=O)Nc1cc(F)c(F)c(F)c1)C(C1CC1)C2 (centres undefined)	23 nM					32000 nM
O=C1CC(c2cnc(C(F)(F)F)s2)CN1c1cnn2c1CN(C(=O)Nc1cc(F)c(F)c(F)c1)C(C1CC1)C2 (centres undefined)	27 nM					38500 nM
O=C1CC(c2ccccc2)CN1c1cnn2c1CN(C(=O)Nc1cc(F)c(F)c(F)c1)C1CCCCC12 (centres undefined)	27 nM					21400 nM

Stronger by EC50 (Hepatitis B virus), values ahead:

EC50 (Hepatitis B virus)	Cmax [2]	half-life [3]	AUC(0-inf) [4]	Tmax [5]	SMILES	CC50 [1]
20 nM					CC1(C)CC(=O)N(c2cnn3c2CN(C(=O)Nc2cc(F)c(F)c(F)c2)C(C2CC2)C3)C1 (centres undefined)	115000 nM
20 nM					O=C1CC(c2ncc(F)cn2)CN1c1cnn2c1CN(C(=O)Nc1cc(F)c(F)c(F)c1)C(C1CC1)C2 (centres undefined)	115000 nM
18 nM					Cc1cnc(C2CC(=O)N(c3cnn4c3CN(C(=O)Nc3cc(F)c(F)c(F)c3)C(C3CC3)C4)C2)s1 (centres undefined)	96200 nM
18 nM					O=C1OC(c2ccccc2)CN1c1cnn2c1CN(C(=O)Nc1cc(F)c(F)c(F)c1)C(C1CC1)C2 (centres undefined)	7410 nM
16 nM					O=C1CC(c2cnco2)CN1c1cnn2c1CN(C(=O)Nc1cc(F)c(F)c(F)c1)C(C1CC1)C2 (centres undefined)	139000 nM
16 nM	3860 ng/mL	202 min	3860 ng·h/mL	19.8 min	Cc1nc(C2CC(=O)N(c3cnn4c3CN(C(=O)Nc3cc(F)c(F)c(F)c3)C(C3CC3)C4)C2)no1 (centres undefined)	> 200000 nM
16 nM	5270 ng/mL	57 min	4020 ng·h/mL	15 min	O=C1CC(Oc2ncccn2)CN1c1cnn2c1CN(C(=O)Nc1cc(F)c(F)c(F)c1)C(C1CC1)C2 (centres undefined)	> 200000 nM
15 nM					O=C1CC(c2ccc(F)cn2)CN1c1cnn2c1CN(C(=O)Nc1cc(F)c(F)c(F)c1)C(C1CC1)C2 (centres undefined)	38500 nM
15 nM	5980 ng/mL	52.2 min	5070 ng·h/mL	15 min	O=C1CC(c2ncccn2)CN1c1cnn2c1CN(C(=O)Nc1cc(F)c(F)c(F)c1)C(C1CC1)C2 (centres undefined)	> 200000 nM
12 nM	6400 ng/mL	278 min	10600 ng·h/mL	15 min	N#CC1CC(=O)N(c2cnn3c2CN(C(=O)Nc2cc(F)c(F)c(F)c2)C(C2CC2)C3)C1 (centres undefined)	> 200000 nM
12 nM					O=C1CC(c2ccccn2)CN1c1cnn2c1CN(C(=O)Nc1cc(F)c(F)c(F)c1)C(C1CC1)C2 (centres undefined)	96200 nM
11 nM					O=C1OC(c2ccc(F)cc2)CN1c1cnn2c1CN(C(=O)Nc1cc(F)c(F)c(F)c1)C(C1CC1)C2 (centres undefined)	3560 nM
11 nM					O=C1CC(c2nccs2)CN1c1cnn2c1CN(C(=O)Nc1cc(F)c(F)c(F)c1)C(C1CC1)C2 (centres undefined)	115000 nM
9 nM					O=C1CC(Oc2ncc(F)cn2)CN1c1cnn2c1CN(C(=O)Nc1cc(F)c(F)c(F)c1)C(C1CC1)C2 (centres undefined)	96200 nM
9 nM	8740 ng/mL	222 min	12200 ng·h/mL	15 min	O=C1CC(c2ncco2)CN1c1cnn2c1CN(C(=O)Nc1cc(F)c(F)c(F)c1)C(C1CC1)C2 (centres undefined)	> 200000 nM
9 nM	3130 ng/mL	136 min	6510 ng·h/mL	15 min	C[C@H]1Cn2ncc(N3CC(c4ccccc4)CC3=O)c2CN1C(=O)Nc1cc(F)c(F)c(F)c1 (some centres undefined)	12800 nM
6 nM					O=C1CC(c2ccccc2)CN1c1cnn2c1CN(C(=O)Nc1cc(F)c(F)c(F)c1)C(C1CC1)C2 (centres undefined)	12800 nM
4 nM					O=C(Nc1cc(F)c(F)c(F)c1)N1Cc2c(-c3ccc(F)cc3)cnn2CC1C1CC1 (centres undefined)	38500 nM
3 nM					O=C1NC(c2ccccc2)CN1c1cnn2c1CN(C(=O)Nc1cc(F)c(F)c(F)c1)C(C1CC1)C2 (centres undefined)	38500 nM
